One block for each compound: values may come before it. The source made the active and inactive calls. The calls are words filed in the database; no cut-off is given here.
What was measured:
A-431 = experiment: Antiproliferative activity against human A-431 cells incubated for 72 hrs by MTT assay; format: functional, cell-based; details: A-431, 72 h
NCI-H1975 = experiment: Antiproliferative activity against human NCI-H1975 cells incubated for 72 hrs by MTT assay; format: functional, cell-based; details: NCI-H1975, 72 h
A549 = experiment: Antiproliferative activity against human A549 cells incubated for 72 hrs by MTT assay; format: functional, cell-based; details: A549, 72 h
HCC827 [1] = experiment: Antiproliferative activity against human HCC827 cells incubated for 72 hrs by MTT assay; format: functional, cell-based; details: HCC827, 72 h
[2] = Selectivity ratio of IC50 for human HCC827 cells to IC50 for human A-431 cells; format: functional
HCC827 [3] = experiment: Induction of apoptosis in human HCC827 cells assessed as late apoptotic cells at 1 uM measured after 24 hrs by Annexin V-FITC/propidium iodide staining based flow cytometry (reference value: 4.31%); format: functional
[4] = Selectivity ratio of IC50 for human HCC827 cells to IC50 for human A549 cells; format: functional
[5] = molecular target: Epidermal growth factor receptor (Homo sapiens) (UniProt P00533); experiment: Inhibition of EGFR phosphorylation in human HCC827 cells measured after 8 hrs by Western blot analysis; format: cell-based
HCC827 [6] = experiment: Induction of apoptosis in human HCC827 cells assessed as viable cells at 1 uM measured after 24 hrs by Annexin V-FITC/propidium iodide staining based flow cytometry (reference value: 77.08%); format: functional; details: read-out: Activity
HCC827 [7] = experiment: Induction of apoptosis in human HCC827 cells assessed as necrotic cells at 1 uM measured after 24 hrs by Annexin V-FITC/propidium iodide staining based flow cytometry (reference value: 6.12%); format: functional
[8] = molecular target: Epidermal growth factor receptor (Homo sapiens) (UniProt P00533); experiment: Inhibition of EGFR phosphorylation in human NCI-H1975 cells measured after 8 hrs by Western blot analysis; format: cell-based
HCC827 [9] = experiment: Cell cycle arrest in human HCC827 cells assessed as increase in accumulation at G0/G1 phase at 1 uM measured after 24 hrs by propidium iodide staining based flow cytometry; format: functional
HCC827 [10] = experiment: Inhibition of colony formation in human HCC827 cells incubated for 20 days by crystal violet staining based assay; format: functional, cell-based; details: time 20.0 day
HCC827 [11] = experiment: Induction of apoptosis in human HCC827 cells assessed as early apoptotic cells at 1 uM measured after 24 hrs by Annexin V-FITC/propidium iodide staining based flow cytometry (reference value: 2.49%); format: functional
[12] = molecular target: Epidermal growth factor receptor (Homo sapiens) (UniProt P00533); experiment: Inhibition of EGFR phosphorylation in human A549 cells measured after 8 hrs by Western blot analysis; format: cell-based
[13] = molecular target: Epidermal growth factor receptor (Homo sapiens, UniProt P00533, C797S/L858R/T790M); experiment: Inhibition of EGFR L858R/T790M/C797S (unknown origin) using Poly (Glu, Tyr) as substrate measured after 40 mins by kinase-glo assay
Chain of Epidermal growth factor receptor (P00533 25-1210 T790M/C797S/L858R limits assumed): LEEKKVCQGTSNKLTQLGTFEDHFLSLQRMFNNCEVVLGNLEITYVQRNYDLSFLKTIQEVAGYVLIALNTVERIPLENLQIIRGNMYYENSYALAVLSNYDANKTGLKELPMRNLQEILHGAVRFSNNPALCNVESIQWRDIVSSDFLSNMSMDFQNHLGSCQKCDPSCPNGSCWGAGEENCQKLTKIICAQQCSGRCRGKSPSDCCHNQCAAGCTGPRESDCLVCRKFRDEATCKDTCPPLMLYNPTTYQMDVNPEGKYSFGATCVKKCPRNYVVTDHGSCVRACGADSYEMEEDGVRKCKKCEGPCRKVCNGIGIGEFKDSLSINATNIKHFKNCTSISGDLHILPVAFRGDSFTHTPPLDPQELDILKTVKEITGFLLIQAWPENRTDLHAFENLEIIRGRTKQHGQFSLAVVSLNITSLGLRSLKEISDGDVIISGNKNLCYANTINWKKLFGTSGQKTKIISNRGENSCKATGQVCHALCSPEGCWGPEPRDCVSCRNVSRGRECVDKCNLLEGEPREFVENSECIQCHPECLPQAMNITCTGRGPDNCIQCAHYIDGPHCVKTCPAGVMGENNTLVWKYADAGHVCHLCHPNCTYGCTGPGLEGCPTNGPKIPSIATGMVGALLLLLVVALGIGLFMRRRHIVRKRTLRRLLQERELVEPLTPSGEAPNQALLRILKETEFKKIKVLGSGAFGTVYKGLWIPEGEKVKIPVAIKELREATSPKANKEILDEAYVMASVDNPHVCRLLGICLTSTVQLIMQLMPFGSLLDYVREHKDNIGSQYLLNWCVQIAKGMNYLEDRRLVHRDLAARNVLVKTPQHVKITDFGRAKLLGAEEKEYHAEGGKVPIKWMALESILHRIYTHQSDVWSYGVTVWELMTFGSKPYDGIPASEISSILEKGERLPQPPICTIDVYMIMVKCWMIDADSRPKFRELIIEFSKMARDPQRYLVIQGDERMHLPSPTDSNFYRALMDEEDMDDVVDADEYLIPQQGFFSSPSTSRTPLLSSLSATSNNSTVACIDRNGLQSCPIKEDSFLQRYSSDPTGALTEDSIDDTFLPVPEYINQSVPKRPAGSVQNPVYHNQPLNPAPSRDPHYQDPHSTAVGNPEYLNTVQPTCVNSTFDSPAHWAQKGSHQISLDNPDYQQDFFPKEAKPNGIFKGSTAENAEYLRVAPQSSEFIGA

Chain of Epidermal growth factor receptor (Homo sapiens) (P00533 whole entry): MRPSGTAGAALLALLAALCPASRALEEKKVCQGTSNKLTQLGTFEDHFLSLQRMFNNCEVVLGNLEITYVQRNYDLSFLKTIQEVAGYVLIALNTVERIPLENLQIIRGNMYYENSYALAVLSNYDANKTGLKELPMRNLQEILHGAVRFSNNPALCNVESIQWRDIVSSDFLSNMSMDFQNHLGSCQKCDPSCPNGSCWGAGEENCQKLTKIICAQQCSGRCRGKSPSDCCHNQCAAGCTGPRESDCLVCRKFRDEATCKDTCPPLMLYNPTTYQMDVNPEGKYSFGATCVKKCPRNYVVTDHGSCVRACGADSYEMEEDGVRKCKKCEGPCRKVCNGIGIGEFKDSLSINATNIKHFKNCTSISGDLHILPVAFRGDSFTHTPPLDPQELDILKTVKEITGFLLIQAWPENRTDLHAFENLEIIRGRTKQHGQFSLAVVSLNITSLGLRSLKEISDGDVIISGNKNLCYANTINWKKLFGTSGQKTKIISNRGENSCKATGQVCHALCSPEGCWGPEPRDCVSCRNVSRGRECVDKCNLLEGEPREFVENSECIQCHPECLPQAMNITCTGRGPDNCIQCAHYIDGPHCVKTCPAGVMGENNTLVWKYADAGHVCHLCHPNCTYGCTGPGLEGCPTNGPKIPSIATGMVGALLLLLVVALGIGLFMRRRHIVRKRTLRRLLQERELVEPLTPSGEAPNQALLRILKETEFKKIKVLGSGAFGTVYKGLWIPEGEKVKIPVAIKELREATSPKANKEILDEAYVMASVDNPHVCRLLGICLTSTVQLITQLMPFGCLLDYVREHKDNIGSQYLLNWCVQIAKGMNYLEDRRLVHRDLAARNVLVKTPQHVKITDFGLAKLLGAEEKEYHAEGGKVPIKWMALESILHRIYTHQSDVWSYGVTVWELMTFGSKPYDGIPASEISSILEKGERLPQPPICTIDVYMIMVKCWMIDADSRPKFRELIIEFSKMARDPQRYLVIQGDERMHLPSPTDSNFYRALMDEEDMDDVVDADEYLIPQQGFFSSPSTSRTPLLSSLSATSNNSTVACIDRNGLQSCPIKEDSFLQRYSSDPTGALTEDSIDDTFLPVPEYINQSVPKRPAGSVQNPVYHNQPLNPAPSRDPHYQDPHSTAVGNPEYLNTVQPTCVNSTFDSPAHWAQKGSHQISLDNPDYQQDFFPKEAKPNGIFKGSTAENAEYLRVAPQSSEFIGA

SMILES: CN1CCN(c2ccc(Nc3ncc4nc(Nc5ccc(F)cc5)n(-c5cccc(NC(=O)CO)c5)c4n3)cc2)CC1
- IC50 (A-431): 1670 nM
- IC50 (NCI-H1975): 580 nM
- IC50 (A549): 1510 nM
- IC50 (HCC827 [1]): 7.5 nM

SMILES: CN1CCN(c2ccc(Nc3ncc4nc(Nc5ccc(F)cc5)n([C@@H]5CCCNC5)c4n3)cc2)CC1
- IC50 (HCC827 [1]): 120 nM

SMILES: CN1CCN(c2ccc(Nc3ncc4nc(Nc5ccc(F)cc5)n([C@H]5CCN(S(=O)(=O)C6CC6)C5)c4n3)cc2)CC1
- IC50 (A-431): 1670 nM
- IC50 (NCI-H1975): 580 nM
- IC50 (A549): 150 nM
- IC50 (HCC827 [1]): 7.5 nM

SMILES: CN1CCN(c2ccc(Nc3ncc4nc(Nc5ccc(F)cc5)n([C@@H]5CCCN(C(=O)CO)C5)c4n3)cc2)CC1
- IC50 (HCC827 [1]): 66 nM

SMILES: CNC(=O)CN1CC[C@H](n2c(Nc3ccccc3)nc3cnc(Nc4ccc(N5CCN(C)CC5)cc4)nc32)C1
- IC50 (HCC827 [1]): 170 nM

SMILES: CN1CCN(c2ccc(Nc3ncc4nc(Nc5ccccc5)n([C@@H]5CCN(C(=O)OC(C)(C)C)C5)c4n3)cc2)CC1
- IC50 (HCC827 [1]): 12 nM

SMILES: CN1CCN(c2ccc(Nc3ncc4nc(Nc5ccc(F)cc5)n([C@@H]5CCN(S(=O)(=O)C6CC6)C5)c4n3)cc2)CC1
- Activity (HCC827 [3]): 45%
- inhibition [5]: Dose-dependent effect
- viability at 1 µM (HCC827 [6]): 32.5%
- IC50 (A-431): > 10000 nM
- IC50 (NCI-H1975): > 10000 nM
- IC50 (A549): > 10000 nM
- IC50 (HCC827 [1]): 2.5 nM
- Activity (HCC827 [7]): 8.27%
- inhibition [8]: Dose-dependent effect
- Activity (HCC827 [9]): Active
- inhibition (HCC827 [10]): Dose-dependent effect
- Activity (HCC827 [11]): 14.24%
- inhibition [12]: Dose-dependent effect
- IC50 [13]: 22 nM

SMILES: CN1CCN(c2ccc(Nc3ncc4nc(Nc5ccc(F)cc5)n(CCNS(=O)(=O)C5CC5)c4n3)cc2)CC1
- IC50 (HCC827 [1]): 50 nM

SMILES: CN1CCN(c2ccc(Nc3ncc4nc(Nc5ccccc5)n([C@@H]5CCNC5)c4n3)cc2)CC1
- IC50 (HCC827 [1]): 65 nM

SMILES: CN1CCN(c2ccc(Nc3ncc4nc(Nc5ccccc5)n([C@H]5CCN(S(=O)(=O)C6CC6)C5)c4n3)cc2)CC1
- Activity (HCC827 [3]): 39.86%
- inhibition [5]: Dose-dependent effect
- viability at 1 µM (HCC827 [6]): 31.2%
- IC50 (A-431): 1670 nM
- IC50 (NCI-H1975): 240 nM
- IC50 (A549): 540 nM
- IC50 (HCC827 [1]): 1.6 nM
- Activity (HCC827 [7]): 8.43%
- inhibition [8]: Dose-dependent effect
- Activity (HCC827 [9]): Active
- inhibition (HCC827 [10]): Dose-dependent effect
- Activity (HCC827 [11]): 20.47%
- inhibition [12]: Dose-dependent effect
- IC50 [13]: 40 nM

SMILES: CN1CCN(c2ccc(Nc3ncc4nc(Nc5ccccc5)n([C@H]5CCN(C(=O)OC(C)(C)C)C5)c4n3)cc2)CC1
- IC50 (HCC827 [1]): 110 nM

SMILES: CN1CCN(c2ccc(Nc3ncc4nc(Nc5ccc(F)cc5)n([C@@H]5CCN(C(=O)OC(C)(C)C)C5)c4n3)cc2)CC1
- IC50 (HCC827 [1]): 27 nM

SMILES: CC(=O)Nc1cccc(-n2c(Nc3ccc(F)cc3)nc3cnc(Nc4ccc(N5CCN(C)CC5)cc4)nc32)c1
- IC50 (HCC827 [1]): 10 nM

More lines, in order of falling IC50 (HCC827 [1]), values ahead:

- IC50 (HCC827 [1]): 1810 nM
SMILES: CCOC(=O)CN1CC[C@H](n2c(Nc3ccc(F)cc3)nc3cnc(Nc4ccc(N5CCN(C)CC5)cc4)nc32)C1

- IC50 (HCC827 [1]): 1520 nM
- IC50 [13]: 561 nM
SMILES: CNC(=O)CN1CC[C@H](n2c(Nc3ccc(F)cc3)nc3cnc(Nc4ccc(N5CCN(C)CC5)cc4)nc32)C1

- IC50 (HCC827 [1]): 1220 nM
SMILES: CN1CCN(c2ccc(Nc3ncc4nc(Nc5ccc(F)cc5)n([C@H]5CCNC5)c4n3)cc2)CC1

- IC50 (HCC827 [1]): 580 nM
- IC50 [13]: 122 nM
SMILES: CN1CCN(c2ccc(Nc3ncc4nc(Nc5ccc(F)cc5)n([C@H]5CCN(C(=O)OC(C)(C)C)C5)c4n3)cc2)CC1

- IC50 (HCC827 [1]): 530 nM
SMILES: CN1CCN(c2ccc(Nc3ncc4nc(Nc5ccccc5)n([C@H]5CCNC5)c4n3)cc2)CC1

- IC50 (HCC827 [1]): 380 nM
SMILES: CN1CCN(c2ccc(Nc3ncc4nc(Nc5ccc(F)cc5)n([C@H]5CCN(C(=O)CO)C5)c4n3)cc2)CC1

- IC50 (HCC827 [1]): 350 nM
SMILES: CN1CCN(c2ccc(Nc3ncc4nc(Nc5ccc(F)cc5)n([C@@H]5CCN(C(=O)CO)C5)c4n3)cc2)CC1

- IC50 (HCC827 [1]): 300 nM
SMILES: CN1CCN(c2ccc(Nc3ncc4nc(Nc5ccc(F)cc5)n([C@@H]5CCNC5)c4n3)cc2)CC1

- IC50 (HCC827 [1]): 260 nM
SMILES: CC(=O)N1CC[C@H](n2c(Nc3ccccc3)nc3cnc(Nc4ccc(N5CCN(C)CC5)cc4)nc32)C1

- IC50 (HCC827 [1]): 38 nM
SMILES: CN1CCN(c2ccc(Nc3ncc4nc(Nc5ccc(F)cc5)n([C@H]5CCCNC5)c4n3)cc2)CC1

- IC50 (HCC827 [1]): 17 nM
SMILES: CN1CCN(c2ccc(Nc3ncc4nc(Nc5ccccc5)n([C@H]5CCN(S(C)(=O)=O)C5)c4n3)cc2)CC1

- IC50 (A-431): 1340 nM
- IC50 (NCI-H1975): 1150 nM
- IC50 (A549): 1320 nM
- IC50 (HCC827 [1]): 8.6 nM
SMILES: CN1CCN(c2ccc(Nc3ncc4nc(Nc5ccc(F)cc5)n([C@H]5CCCN(S(=O)(=O)C6CC6)C5)c4n3)cc2)CC1

- IC50 (A-431): 3000 nM
- IC50 (NCI-H1975): 750 nM
- IC50 (A549): 830 nM
- IC50 (HCC827 [1]): 1.8 nM
SMILES: CN1CCN(c2ccc(Nc3ncc4nc(Nc5ccc(F)cc5)n([C@H]5CCCN(C(=O)CO)C5)c4n3)cc2)CC1
- Activity (HCC827 [3]): 42.63%
- viability at 1 µM (HCC827 [6]): 31.5%
- Activity (HCC827 [7]): 9.11%
- Activity (HCC827 [9]): Active
- inhibition (HCC827 [10]): Dose-dependent effect
- Activity (HCC827 [11]): 16.77%

- inhibition [5]: Dose-dependent effect
- IC50 (A-431): > 10000 nM
- IC50 (NCI-H1975): 200 nM
- IC50 (A549): 2910 nM
- IC50 (HCC827 [1]): 0.88 nM
- inhibition [8]: Dose-dependent effect
- inhibition [12]: Dose-dependent effect
- IC50 [13]: 18 nM
SMILES: CN1CCN(c2ccc(Nc3ncc4nc(Nc5ccccc5)n([C@@H]5CCN(S(=O)(=O)C6CC6)C5)c4n3)cc2)CC1
- Ratio IC50 [2]: 20000
- Activity (HCC827 [3]): 51.72%
- Ratio IC50 [4]: 5820
- viability at 1 µM (HCC827 [6]): 28.6%
- Activity (HCC827 [7]): 8.49%
- Activity (HCC827 [9]): Active
- inhibition (HCC827 [10]): Dose-dependent effect
- Activity (HCC827 [11]): 11.22%
